From patent US8936809B2, “Method for treating prostate diseases based on local delivery of active substances” (Lidds AB, priority 2005, dated 2015)
Where “and” joins values, the source holds several entries; their conditions need not be identical. Equal values may be shown once. Read-outs that look alike come from different tables or passages of the source.

Tests used:
dog prostate tissue = assay: Macroscopic anti-proliferate effect on dog prostate tissue: volume before, weight after, palpation (Example 1); type: in vivo; set-up: key to Palpation: 0 = no effect; + = mild effect; ++ = intermediate; +++ = strong effect; settings: for Weight of prostate tissue (after): termination after day 20
Excerpt: After day 20, each dog was terminated with an intravenous dose of a mixture of pentobarbital and potassium. The following organs were surgical removed and frozen: prostate, testis, liver and kidney for the assessment of effect and safety. These organs were carefully examined as a consequence of the local tissue exposure of 2-hydroxy-flutamide and the ceramic-based implant. The macroscopic pharmacological anti-proliferate effect of 2-hydroxy-flutamide was examined as the volume-weight ratio of the dog prostate tissue before and after the local administration of 2-hydroxy-flutamide as a single controlled release pharmaceutical composition.

[1] = Observation of behaviour and side effects (diarrhea) in dogs (Example 1); type: in vivo, dog
Method: First, four male dogs (H1-H4) (Labrador, approx. 1 year of age and weight 30 kg) were given 2-hydroxy-flutamide (25 mg) by single bolus doses intravenously during 30 seconds. The intravenous solution base was sterile saline […], sterile polyethylene glycol 400 46% and ethanol (95%) 6%. Blood samples of 1.0 ml were taken from the Cephalic vein at 5, 10, 15, 30, 60, 90, 120, 240, 360, and 600 minutes. The blood samples were immediately centrifuged at 3000 rpm and the plasma samples were frozen at −80° C. until analysis.
One week later, the same animals were given 2-hydroxy-flutamide locally by a controlled release pharmaceutical composition in the prostate tissue. The 2-hydroxy- flutamide doses were 0 mg (H1), 30 mg (H3), 60 mg (H2) and 120 mg (H4), and each dog was given one implant only. Where H1 was a control given the composition without 2-hydroxy-flutamide. All doses of 2-hydroxy-flutamide were given after an overnight fast. Dog 1 (H1) and dog 3 (H3) were given an enema preoperatively. After the local prostate application of the pharmaceutical composition through rectum, an antibiotic (Quinolon) was administered in normal doses.

[2] = Plasma pharmacokinetics and tissue level after controlled release implant into bulbourethral gland of male sheep (Example 2); type: in vivo
Method: The major purpose of the present animal study was to examine the pharmacokinetics, efficacy and safety of the novel local drug delivery system with 2-hydroxyflutamide, a selective antagonist to the androgen receptor (AR). A ceramic based drug delivery product was administered into an androgen dependent tissue (the bulbourethral gland) in male sheep. In total 11 male sheep were divided into two separate groups. One group was given 2-hydroxyflutamide by the local implant delivery system as a single administration into the bulbourethral gland and was monitored during 2 months. Each sheep in this treatment group received the prostate implant by a single dose of 250 mg. The other group only received ceramic formulation without any active drug substance.
The implant drug delivery system was inserted locally, via rectum, into the androgen dependent tissue (bulbourethral gland) through sterile needles during rectal ultrasound guidance. The animals were during anaesthesia throughout the insertion procedure. The sterile ceramic based implant had two major components: calcium sulphate (CaSO4-0.5H2O) and 2-hydroxyflutamide. The composition of the formulation was 250 mg 2-hydroxyflutamide+2.25 g calcium sulphate di-hydrate+5.0 g calcium sulphate hemi-hydrate and it was mixed with solution: 3.5 ml of water solution (with 1% acetic acid and 1% methyl cellulose). […] The amount injected into each lobe of the androgen sensitive bulbourethral gland was about 2.0-3.0 ml.
Quantification of 2-hydroxy-flutamide in plasma samples was done by HPLC-MS. HPLC was performed with a Surveyor HPLC system equipped with a CTC Pal autosampler. The analytical column was a Zorbax Eclipse XDB-18 (2.1 mm×50 mm, particle size 5 μm) connected to a guard column. The calibration curves were constructed by linear regression of the peak area ratio of 2-hydroxy-flutamide and internal standard as a function of 2-hydroxy-flutamide concentrations. The method performance was studied using quality control (QC) samples, which were prepared by spiking blank plasma with 2-hydroxy-flutamide.
Sheep plasma (unknown, QC or calibration sample) at a volume of 100 μL was mixed with 100 μL of internal standard solution (nilutamide at 0.025 μg/mL) and 250 μL of acetonitrile. A subsequent vortex mix was performed for 20 seconds followed by a centrifugation for 10 minutes. […] of the supernatant was transferred to a clean test tube and evaporated to dryness at 50° C. in a gentle stream of nitrogen. The residue was reconstituted in 100 μL aqueous formic acid (0.1%) and transferred to a vial for LC-MS/MS analysis.
The formulation was successfully administered in 11 male sheep. Based on the plasma exposure profile the pharmacokinetic variables were calculated with standard methods (Table 4).

prostate tissue = assay: Efficacy and safety of local prostate implant in male beagle dogs: side effects, urinated volume, histopathology (Example 3); type: in vivo, dog
Method: The major purpose of the present animal study was to examine the efficacy and safety of the new local drug delivery system with 2-hydroxyflutamide, a selective antagonist of the androgen receptor (AR) as the active moiety in human prostate tissue during various treatment periods in male dogs. The dog has been selected as the test model because of its proven suitability in this type of study. The study was performed in 12 male beagle dogs from Harlan Winkelmann GmbH, Germany. The sterile controlled release implant was composed of ceramic compounds and 2-hydroxyflutamide. Storage and handling instructions were given. The composition of the formulation of the low and high dose was 250 mg of 2-hydroxyflutamide +2.25 g calcium sulphate […] +5.0 g calcium sulphate hemi-hydrate and it was mixed with solution: 3.5 ml of water solution (with 1% acetic acid and 1% methyl cellulose). The final formulation work was done during sterile conditions by trained personal at the experimental day. […] The animals were fasted for at least 12 hours prior to the insertion procedure on Day 1. The implant drug delivery system was inserted locally into the prostate tissue, via rectum, through sterile needles during rectal ultrasound guidance. Each animal was under anesthesia during the insertion procedure.

[3] = Plasma pharmacokinetics and tissue level after controlled release implant into bulbourethral gland of male sheep (Example 2); type: in vivo; settings: three moths after the injection
[4] = male sheep plasma, 250 mg implant into bulbourethral gland, individual animals
[5] = local prostate implant 250 mg or 500 mg

- Tmax ([2]; male, sheep, plasma, 250 mg, male sheep, 250 mg implant into bulbourethral gland, Mean of seven sheep): 9 h
- AUC ([2]; male, sheep, plasma, 250 mg, male sheep, 250 mg implant into bulbourethral gland, Mean of seven sheep, read-out: AUC): 3770 ng·h/mL
- Cmax ([2]; male, sheep, plasma, 250 mg, male sheep, 250 mg implant into bulbourethral gland, Mean of seven sheep, read-out: Cmax): 42 ng/mL
- half-life ([2]; male, sheep, plasma, 250 mg, male sheep, 250 mg implant into bulbourethral gland, Mean of seven sheep, read-out: t½ (converted)): 146 h
- half-life ([2]; male, sheep, plasma, other: local implant into the bulbourethral gland via rectum, 250 mg, male sheep, 250 mg controlled release implant, read-out: elimination half-life (converted)): ~146 h
- levels in prostate gland [3]: possible to quantify
Compound: CC(C)(O)C(=O)Nc1ccc([N+](=O)[O-])c(C(F)(F)F)c1 [2-hydroxy-flutamide]
- Palpation (dog prostate tissue; dog H2, 60 mg local prostate implant): ++
- Weight of prostate tissue (after) (dog prostate tissue; dog H2, after local administration of 60 mg): 13 g
- volume of prostate tissue (before) (dog prostate tissue; dog H2, before local administration of 60 mg): 13.3 cm^3
- Palpation (dog prostate tissue; dog H3, 30 mg local prostate implant): 0
- Weight of prostate tissue (after) (dog prostate tissue; dog H3, after local administration of 30 mg): 17 g
- volume of prostate tissue (before) (dog prostate tissue; dog H3, before local administration of 30 mg): 12.4 cm^3
- Palpation (dog prostate tissue; dog H4, 120 mg local prostate implant): +++
- Weight of prostate tissue (after) (dog prostate tissue; dog H4, after local administration of 120 mg): 13 g
- volume of prostate tissue (before) (dog prostate tissue; dog H4, before local administration of 120 mg): 11.3 cm^3
- anti-proliferate effect (dog prostate tissue; dogs, local prostate implant, three weeks): clear anti-proliferate effect
- macroscopic effect based on volume (before) and weight (after) (dog prostate tissue; two higher doses (60 mg, H2 and 120 mg, H4) in comparison with placebo (H1) and low dose (30 mg, H3)): resulted in a macroscopic effect
- diarrhea ([1]; after intravenous administration 25 mg): all dogs suffered from diarrhea
- diarrhea ([1]; after local administration of the controlled release composition in the prostate tissue): not observed in any animals
- AUC [2, 4]: 3725 ng·h/mL and 3390 ng·h/mL and 3755 ng·h/mL and 1855 ng·h/mL and 4948 ng·h/mL and 4436 ng·h/mL and 4287 ng·h/mL
- Cmax [2, 4]: 84 ng/mL and 35 ng/mL and 19.8 ng/mL and 16.3 ng/mL and 34 ng/mL and 31 ng/mL and 26 ng/mL
- t½ [2, 4]: 253 h and 117 h and 67 h and 168 h and 119 h and 140 h and 159 h
- diarrhea (prostate tissue; [5]): no diarrhea observed
- effect of the treatment on the urinated volume (prostate tissue; [5]): no effect
- side-effects (prostate tissue; [5]): no side-effects were observed
- microscopic findings of the prostate tissue (histopathology) (prostate tissue; treated groups, local prostate implant): increased incidence of vacuolation and cystic acini
